In patent US10732172B1, “Methods, systems, and compositions for determining blood clot formation, and uses thereof” (President and Fellows of Harvard College, priority 2015, dated 2020):
“Also recorded” adds a separate entry of the source.

Columns and labels:
[1] = system: platelets and endothelium in LPS-stimulated lung-on-a-chip (PAR-1); assay: Platelet-endothelial dynamics (P-E) in LPS-stimulated lung-on-a-chip with PM2; assay type: cell-based, human
Description: (§1) Specifically, the analysis includes a method to quantitate platelet function in flow chambers and microfluidic devices that has been primarily limited to analyzing platelet adhesion on bare collagen surfaces. To analyze platelet-endothelial dynamics that will act as a robust readout of physiologically-relevant clotting, an automated imaging program creates an image time-series, K(x, y, t), containing a 10-frame panorama in space. Images are acquired at a frame rate of 2 panoramic images per minute, for a total time of 15 minutes. A non-dimensional stochastic index is derived to quantitate platelet endothelial dynamics (“P-E”), which is the interpercentile range of a coefficient of variance of the image time-series: P-E=range(CV(K(x,y,t) (1) A feature of this analytical readout is that instead of an “ensemble averaging,” the method incorporates the cell-surface interactions at the pixel level and quantitates statistical “dispersion” of interactions.
(§2) After plasma treatment of the microfluidic devices, the two chambers are pre-treated with 10% (3-aminopropyl)-trimethoxysilane (APTMES, e.g., from Sigma) in 100% anhydrous alcohol (e.g., from Sigma) for 10-20 minutes. The chambers are flushed sequentially with 70% ethanol in water and 100% ethanol, and then dried at 60-80° C. for two hours. Then, a mixture of rat tail collagen I (100 μg ml^−1 in PBS, from BD Biosciences) and fibronectin (e.g., 30 μg/ml in PBSm, from BD Biosciences) is introduced in both chambers of the microfluidic device. The microfluidic device is incubated at 37° C. for at least 2 hours before flushing with PBS or EGM-2 cell culture media.
(§3) Some of the microfluidic devices are used with collagen coating alone (without cells). In other devices, HUVECs (e.g. from Lonza) are cultured in Endothelial Growth Medium-2 (EGM-2, from Lonza) and used between certain passages. The cells (5-10×10^6 cells/ml) are introduced into the collagen-coated channels and incubated for 20 minutes at 37° C. to promote cell attachment before a second similar HUVEC suspension is, then, introduced. The microfluidic devices are incubated upside down for an additional 20 minutes to seed the cells on the ceiling and walls of the lower chamber.
The lower chamber is then flushed with EGM-2 and, then, a suspension of primary alveolar epithelial cells (e.g., from ScienCell Research Labs, Carlsbad, Calif.; 5-6×10^6 cells ml^−1) is introduced into the top chamber of the device. After a few hours, the top and bottom chambers are flushed with their respective media, and the microfluidic devices are incubated at 37° C. under 5% CO2 for 3 days (with media being replaced each day once). […]

C57BL/6J mice = assay: Mouse laser injury model of thrombosis and lung histology after LPS; assay type: in vivo
Protocol: In the above described techniques, C57BL/6J mice (about 8-12 weeks old) are used. For example, the mice are purchased from the Jackson Laboratory (Bar Harbor, Me.). Animal care and experimental procedures are performed in accordance with and under approval of the Beth Israel Deaconess Medical Center (“BIDMC”) Institutional Animal Care and Use Committee.
LPS is isolated from Escherichia coli serotype 0111:B4 (e.g., from Sigma-Aldrich, St Louis, Mo.). The anti-platelet antibody CD42b conjugated to Dylight649 is purchased, for example, from Emfret Analytics (Eibelstadt, Germany).
A laser-induced injury model of thrombosis is optionally used to monitor thrombosis formation in cremaster arterioles and venules in response to intraperitoneal injection of LPS (e.g., 10 mg kg^−1) or vehicle (e.g., physiological saline solution). Intravital microscopy of the cremaster microcirculation is performed, with injury to a cremaster arteriolar (e.g., 30-50 μm diameter) vessel wall being induced with a Micropoint Laser System (e.g., from Photonics Instruments, Chicago, Ill.). The Micropoint Laser System is focused through a microscope objective, parfocal with the focal plane and tuned to 440 nm. Data is captured digitally in a single fluorescence channel at 647/670 nm. Data acquisition is initiated both prior to and following a single laser pulse for each injury. Images are captured using a CCD camera (e.g., from Hamamatsu) at frame rates of 1/0.2 s^−1 and 1/0.5 s^−1, for a total of 240 seconds. The microscope system is controlled and images are analyzed using Slidebook (e.g., from Intelligent Imaging Innovations, Denver, Colo.). Anti-platelet antibodies re infused into the mice prior to vessel wall injury.
Histology Lungs are harvested in 4% paraformaldehyde. Following overnight incubation, lungs re transferred to 70% ethanol. Paraffin-embedded lungs are sectioned and stained with Hematoxylin and eosin […] or Masson's Trichome stain (MTS). This work is done by the histology and microscopy core at BIDMC.

[2] = system: primary alveolar epithelial cells (AE) and endothelial cells with whole blood; assay: Lung-on-a-chip stimulated with TNF-α or LPS: vascular ICAM-1, P-E, clots, gap junctions; assay type: cell-based, human
Description: as §1, §2, §3
The lower chamber is then flushed with EGM-2 and, then, a suspension of primary alveolar epithelial cells (e.g., from ScienCell Research Labs, Carlsbad, Calif.; 5-6×10^6 cells ml^−1) is introduced into the top chamber of the device. After a few hours, the top and bottom chambers are flushed with their respective media, and the microfluidic devices are incubated at 37° C. under 5% CO2 for 3 days (with media being replaced each day once). On day 4, the bottom vascular chamber is set on perfusion of EGM-2 media (e.g., 30 μL hr^−1; 0.5% fetal bovine serum) to provide shear to the HUVEC vessel chamber and a continuous supply of fresh media.
On day 6, the epithelial cell media in the top chamber is aspirated to create the air-liquid interface of the alveoli. Hereon, the cell culture continues for another 6-8 days, after which, in some cases, the top chamber is supplemented with 0, 5, or 100 ng ml^−1 TNF-α in PBS (e.g., from Sigma) overnight or LPS (e.g., 100 ng ml^−1 of E. Coli, from Sigma,) for 2 hours to cause cell activation. The LPS is sonicated in ultrasonic bath for about 20-30 minutes before introducing into the microfluidic device. After stimulation, the top chamber is clamped, the bottom chamber is rinsed with culture media, a reservoir cut from a 3 ml slip-tip syringe (e.g., from BD) is inserted on one end of the lower chamber, and a 1/16-inch male luer connector (e.g., from Qosina Corp) is inserted on the other end of the lower chamber.
When analyzing the formation of fibrin, blood samples re added with 15 μg ml^−1 of fluorescently labeled fibrinogen (e.g., Alexa 488 from Invitrogen). […]

| Compound | platelet-endothelial dynamics (P-E) ([1]; PM2 30 μM added to blood alone, AE side stimulated with LPS) | clotting and platelet-endothelial dynamics (P-E) ([1]; PM2 30 μM added to endothelial cell culture medium, AE side stimulated with LPS 100 ng/ml) | P-E and thrombotic activity ([1]; PM2 added to both endothelium and platelets, AE side stimulated with LPS) | overall effect of PM2 in LPS-stimulated lung-on-a-chip ([1]; model of acute lung dysfunction, whole blood perfusion) | lung histology (C57BL/6J mice; LPS injection) | increase in P-E in cremaster artery and vein (C57BL/6J mice; laser injury plus LPS) | platelet-endothelial interactions / thrombosis in cremaster artery or vein (C57BL/6J mice; systemic LPS alone (10 mg kg^-1 intraperitoneal)) | platelet-endothelial dynamics (P-E) ([2]; LPS in the absence of AE) | gap junctions ([2]; LPS in the presence of AE) | thrombus formation ([2]; LPS stimulation of endothelium alone) | endothelial inflammation (vascular ICAM-1) ([2]; LPS stimulation over the AE) | platelet-endothelial dynamics (P-E) ([2]; LPS stimulation over the AE) | thrombus formation (platelet aggregates, fibrin) in the lumen ([2]; LPS-stimulated device containing AE) | gap junctions ([2]; blood vessel alone stimulated with LPS) | vascular ICAM-1 ([2]; blood vessel alone stimulated with LPS for 2 hours (no AE)) |
| --- | --- | --- | --- | --- | --- | --- | --- | --- | --- | --- | --- | --- | --- | --- | --- |
| CCCC(=O)Nc1cccc(NC(=O)c2ccccc2Br)c1 [PM2, parmodulin 2] | reduction of P-E | no significant clotting occurs | completely inhibits the P-E and thrombotic activity | endothelial cytoprotective effect; also recorded: cytoprotective and anti-thrombotic effect | – | – | – | – | – | – | – | – | – | – | – |
| lipopolysaccharide [LPS] | – | – | – | – | lung injury and pulmonary thrombosis; also recorded: causes clotting in the lung | further exacerbated | does not induce any platelet-endothelial interactions; also recorded: does not cause thrombosis in a cremaster artery or vein | near absent | significantly increase | does not cause thrombus formation | inflamed | significantly increases | large platelet aggregates are formed along with significant fibrin in the lumen; also recorded: vascular dysfunction and rapid clotting | not affected | no significant increase in ICAM-1 |
